Experimental data from patent publication US6583132B1, “Oxidant scavengers” (Duke University, priority 1993, dated 2003).

Experiments:
[1] = system: descending thoracic aorta rings; test: NO-induced vascular relaxations of aortic rings; parameters: species or system New Zealand white rabbits; settings: 100 μM; NO 75-300 nM
Experimental: Measurement of NO-induced vascular relaxations: New Zealand white rabbits weighing 3-4 kg were anesthetized with pentobarbital (30 mg/kg). The descending thoracic aorta was isolated, removed, cleaned and placed in Krebs buffer (pH 7.5). Vessels were cut into 5 mm rings and hung on stirrups connected to force transducers. Rings were suspended in 20 ml jacketed baths which were kept at 37° C. and bubbled with 95% O2 and 5% CO2. Rings were equilibrated with 2 g resting tension for 1 h before use and contracted with phenylephrine. Saturated NO solution was prepared by bubbling compressed NO gas through a NaOH trap and then into anaerobic deionized water. Aliquots of the nitric oxide solutions (final concentration: 75-300 nM) were added to the rings (in the presence or absence of 100 μM MnTBAP) and relaxant responses were recorded.

[2] = system: calf pulmonary artery endothelial cell cultures (CPA-47); test: Xanthine oxidase/xanthine-induced injury, LDH release; type: cell-based; settings: 50 μM, 1 hour pre-incubation; XO plus 200 μM xanthine, 24 hours
Experimental: In a second study, calf pulmonary artery endothelial cell cultures (CPA-47 (Tissue and Cell 10:535 (1978)) were grown to confluence in Ham's F-12K medium with 10% fetal bovine serum at pH 7.4 and 37° C. Cells were then trypsinized and seeded at equal densities in 24 well plates and grown to 90% confluence. Cells were washed and pre-incubated for 1 hour with 50 μM of MnTBAO in minimum essential medium (MEM) or MEM only. Various amounts of xanthine oxidase (XO) plus 200 μM xanthine (X) were added and allowed to incubate for 24 hours. Cell injury was quantitated by measuring the release of cellular lactate dehydrogenase (LDH) into the medium.

“Mn(III) tetrakis (4-benzoic acid)porphyrin [MnTBAP]” was tested, and the “relaxations in vascular rings in response to authentic NO” value [1] was “did not inhibit” and the “XO/X-induced LDH release” value [2] was “decrease in XO/X-induced LDH release”.
